Residues, ends and D or L forms follow the SMILES beside them.
Tests used:
[1] = tested on: 697 (WT1+ leukemia cell line); type: cell-based, human
Description: FIG. 9, left panel. […] CD8^+ T cells were incubated with radiolabeled target cells (pulsed or unpulsed 697 (A0201^+, WT1^+) or SKLY16 (A0201+, WT1-) at 3 different E:T ratios: Grey bars 100:1; Black bars 30:1; White bars 10:1. Y axis: percentage of cytotoxicity. X axis: target cell conditions. *-p<0.05 compared to SKLY16 controls at the same E:T ratio. Right panel: CD8+ T cells isolated as described for the left panel were incubated with radiolabeled JMN (solid line A0201+ WT1+) or MeWo (dashed line A0201+, WT1-) target cells at 4 different E:T ratios: Y axis: percentage of cytotoxicity. X axis: E:T ratios. P was <0.001 compared to MeWo controls. The presence of specific CTL was measured in a standard 4 h-chromium release assay. Target cells were pulsed with 10 microgram (mcg)/ml of synthetic peptides overnight at 37° C. and labeled with 300 μCi of Na2^51CrO4 (NEN Life Science Products, Inc., Boston, Mass.). After extensive washing, target cells were incubated with T cells at an E:T ratio ranging from 100:1 to 10:1. […] Supernatant fluids were harvested and radioactivity was measured in a gamma counter. Percent specific lysis was determined from the following formula: 100×[(experimental release minus spontaneous release)/(maximum release minus spontaneous release)]. Maximum release was determined by lysis of radiolabeled targets in 2.5% Triton X-100.

[2] = tested on: JMN (WT1+ mesothelioma cell line); type: cell-based, human
Description: (§1) FIG. 9, left panel. […] The presence of specific CTL was measured in a standard 4 h-chromium release assay. Target cells were pulsed with 10 microgram (mcg)/ml of synthetic peptides overnight at 37° C. and labeled with 300 μCi of Na2^51CrO4 (NEN Life Science Products, Inc., Boston, Mass.). After extensive washing, target cells were incubated with T cells at an E:T ratio ranging from 100:1 to 10:1. All conditions were performed in triplicate. Plates were incubated for 4 hours at 37° C. in 5% CO2. Supernatant fluids were harvested and radioactivity was measured in a gamma counter. Percent specific lysis was determined from the following formula: 100×[(experimental release minus spontaneous release)/(maximum release minus spontaneous release)]. Maximum release was determined by lysis of radiolabeled targets in 2.5% Triton X-100.

[3] = tested on: CD3+ T cells; experiment: Cross-priming: T cells stimulated with DCs incubated with tumor lysates, IFN-gamma ELISPOT against peptide-pulsed DCs; type: cell-based, human; conditions: for experiments in which lysate-stimulated T cells recognized the peptide: WT1 positive tumor lysates, 5 separate donors
Description: A CD3^+ in vitro stimulation was performed as described above. 2×10^6 immature DCs were incubated with total cellular lysate from 2×10^6 tumor cells that was previously prepared by 3 freeze/thaw cycles. Following an 18 hour incubation, maturation cytokines were added to the DCs as described above. […] These DCs were exposed to peptide again during the ELISPOT assay as described above.
Total tumor lysates were prepared from 3 different cell lines: 697 (WT1^+, HLA A0201^+), an e1a2 leukemia cell line; JMN (WT1^+, HLA A0201^+) a biphasic mesothelioma cell line, and as a control, MeWo (WT1^−, HLA A0201^+), a malignant melanoma cell line. DCs from healthy A0201^+ donors were incubated for 18 hours with the tumor lysates and used to stimulate autologous CD3^+ T cells. Following 3 stimulations, the T cells were tested for their reactivity to autologous DCs pulsed with the WT1 peptides. […] These experiments were repeated in 5 separate donors.

[4] = tested on: CD3+ T cells; experiment: IFN-gamma ELISPOT of peptide-stimulated T cells from healthy donors with different HLA-DRB1 types; type: cell-based, human; conditions: for experiments with peptide specific T cell responses: 7 healthy donors, each a different HLA-DRB1 type, positive/total experiments; for peptide specific CD4 response, IFN-γ ELISPOT: donors with different HLA-DRB1 types, FIG. 5
Description: PBMC were Ficoll-purified from blood and resuspended at 5×10^6/ml in Ex-Vivo-150® medium (BioWhittaker, Walkersville, Md.) containing 1% autologous plasma. After a 2-hour incubation at 37° C., the non-adherent fraction was harvested and washed repeatedly with PBS, then resuspended in media containing 1×10^3 IU/ml GM-CSF and 0.0032 IU/ml IL-4. On day 2 and 4, the same media was added as re-feed (i.e., ½ the volume of media, containing enough cytokines for the entire dish, was added). On day 5, 10 μg/ml of peptide was added.
On day 6, a maturation cocktail of cytokines was added, and cells were cultured for another 48 hours. The maturation cocktail consisted of: 4×10^2 IU/ml IL-1-beta, 0.0032 IU/ml IL-4, 1×10^3 IU/ml IL-6, 1×10^3 IU/ml GMCSF, […], and 1 μg/ml PGE2.
On day 7, DC were harvested and washed twice with RPMI, counted, aliquoted and resuspended at 1×10^6/ml in X-vivo 15® media (without serum). Peptides were added to a final concentration of 10 μg/ml, and incubated for 2 h, 37° C. and 5% CO2, gently re-suspending every 15 minutes, then washed twice in HBSS and re-suspended in RPMI+5% autologous plasma at an appropriate concentration depending on the number of effectors isolated in the next step.
In addition, on day 7, additional PBMC were used to generate additional DC and CD3^+ cells. DC were isolated from the adherent fraction and prepared as described above for the second stimulation of the effector cells on day 14. CD3^+ cells were isolated from the non-adherent fraction by negative selection and stimulated with the previously prepared DC by re-suspending the CD3^+ cells at a concentration of 2×10^6 cells/ml in RPMI+5% autologous plasma, and adding DC at an effector:DC ratio of 20:1 and 10 ng/ml IL-15. Cells were then plated in 2 ml and co-incubated at 37° C. and 5% CO2 for 1 week.
On day 14, the CD3^+ cells were stimulated a second time with the second batch of DC in the same manner, except that 1×10^6 cells/ml were mixed with DC at an effector:DC ratio of 50:1. On day 18, the same media was added as re-feed. On day 20, the DC from the previous generation were defrosted and incubated in maturation cytokines in X-vivo 15® media. On day 21, the ELISPOT assay was conducted.
Plates were pre-wet with 30 μl/well 70% alcohol, shaking the plates to ensure coverage of the entire surface area, washed 3 times with 150 μl/well sterile PBS, then incubated overnight at 4° C. with 10 μg/ml coating antibody (anti-INF clone) in PBS, 100 μl/well, wrapped in aluminum foil. Plates were then washed 2 times with 150 μl/well PBS and 1 time with RPMI/10% autologous plasma (AP), then blocked with 150 μl/well RPMI/5% AP for 2 hours at 37° C. PBMC were suspended in RPMI/5% AP at 1×10^6/ml. […]

[5] = target: HLA-A0201 (Homo sapiens, UniProt P04439, D140Y/D185E/D98H/E176V/E277Q/G131W/G231S/I119V/I121R/I166T/I218V/L300P/L318F/N151K/N90K/P208A/P217A/Q86G/Q94H/R138H/R169H/T345S); experiment: T2 assay for peptide binding and stabilization of HLA A0201 molecules; type: cell-based; conditions: Example 1
Description: T2 cells (TAP^−, HLA-A0201^+) were incubated overnight at 27° C. at a concentration of 1×10^6 cells/ml in FCS-free RPMI medium supplemented with 5 μg/ml human β2m (Sigma, St Louis, Mo.) in the absence (negative control) or presence of either a positive reference tyrosinase peptide or test peptides at various final concentrations (50, 10, 1, and 0.1 micrograms (μg)/ml). Following a 4-hour incubation with 5 μg/ml brefeldin A (Sigma), T2 cells were labeled for 30 minutes at 4° C. with a saturating concentration of anti-HLA-A2.1 (BB7.2) mAb, then washed twice. Cells were then incubated for 30 minutes, 4° C. with a saturating concentration of FITC-conjugated goat IgG F(ab′)2 anti-mouse Ig (Caltag, San Francisco, Calif.), washed twice, fixed in PBS/1% paraformaldehyde and analyzed using a FACS Calibur® cytofluorometer (Becton Dickinson, Immunocytometry Systems, San Jose, Calif.).
The mean intensity of fluorescence (MIF) observed for each peptide concentration (after dividing by the MIF in the absence of peptide) was used as an indication of peptide binding and expressed as a “fluorescence index.” Stabilization assays were performed similarly. Following initial evaluation of peptide binding at time 0, cells were washed in RPMI complete medium to remove free peptides and incubated in the continuous presence of 0.5 μg/ml brefeldin-A for 2, 4, 6 or 8 hours.
The number of stable peptide-HLA-A2.1 complexes was estimated as described above by immunofluorescence. The half time of complexes is an estimate of the time required for a 50% reduction of the MIF value at time=0.

[6] = tested on: MeWo (WT1- melanoma cell line); experiment: Chromium 51 cytotoxicity assay; type: cell-based, human
Description: as §1

[7] = human T cells stimulated 2 times with the peptide

Compound: CSCC[C@H](NC(=O)[C@H](Cc1ccc(O)cc1)NC(=O)[C@H](C)NC(=O)[C@H](CCC(N)=O)NC(=O)CNC(=O)[C@@H](N)CO)C(=O)N[C@@H](Cc1ccccc1)C(=O)N1CCC[C@H]1C(=O)N[C@@H](CC(N)=O)C(=O)N[C@@H](C)C(=O)N1CCC[C@H]1C(=O)N[C@@H](Cc1ccc(O)cc1)C(=O)N[C@@H](CC(C)C)C(=O)N1CCC[C@H]1C(=O)N[C@@H](CO)C(=O)N[C@@H](CS)C(=O)N[C@@H](CC(C)C)C(=O)N[C@@H](CCC(=O)O)C(=O)N[C@@H](CO)C(=O)O [Peptide 122A1] (H-SGQAYMFPNAPYLPSCLES-OH)
- A0201+ donors with similar cytotoxicity results [1]: ¾
- cytotoxicity of stimulated CD8+ cells to 697 [1]: stimulated a sufficient number of CD8^+ cells to be cytotoxic to 697
- cytotoxicity of stimulated CD4+ cells [2]: no cytotoxicity

Compound: LVRHHNMHQRNMTKL (listed as Homo sapiens) [Peptide 427]
- experiments in which lysate-stimulated T cells recognized the peptide [3]: all experiments

Compound: PGCNKRYFKLSHLQMHSRKHTG (listed as Homo sapiens) [Peptide 328]
- experiments with peptide specific T cell responses [4]: 11/15
- peptide specific CD4 response, IFN-γ ELISPOT [4]: stimulated a significant peptide specific CD4 response
- experiments in which lysate-stimulated T cells recognized the peptide [3]: ⅗

Compound: RSDELVRHHNMHQRNMTKL (listed as Homo sapiens) [Peptide 423]
- experiments with peptide specific T cell responses [4]: 3/14

Compound: TEYKLVVVGAPGVGKSALTIQ (listed as Homo sapiens) [RAS, reference compound]
- peptide specific CD4 response, IFN-γ ELISPOT [4]: did not produce IFN-γ over background levels

Compound: YLGEQQYSV (One or more amino acids changed compared to native peptide sequence) [WT1 B (analogue)]
- stability of binding to HLA-A0201 [5]: stable binding

Compound: YLLPAVPSL (One or more amino acids changed compared to native peptide sequence) [WT1 C1 (analogue)]
- stability of binding to HLA-A0201 [5]: stable binding

Compound: YMFPNAPYL (One or more amino acids changed compared to native peptide sequence) [WT1 A1 (analogue)]
- stability of binding to HLA-A0201 [5]: stable binding
- recognition by T cells stimulated with DCs pulsed with 697 tumor lysate ([3]; 697 tumor lysate): recognized
- recognition of JMN cells by stimulated CD3+ T cells ([2]; FIG. 9 right panel): recognized JMN cells
- lysis of JMN [2, 7]: 44.8%
- recognition of MeWo cells by stimulated CD3+ T cells ([6]; MeWo alone or pulsed with WT1 122A1 peptide): not negative control MeWo cells
- lysis of MeWo [6, 7]: 22.2%
